According to patent US11667602B2, “Compounds and their use” (AstraZeneca AB, priority 2020, dated 2023):

Target: T1, human RXFP1 (Homo sapiens, UniProt Q9HBX9)
T1 sequence (Q9HBX9 1-757): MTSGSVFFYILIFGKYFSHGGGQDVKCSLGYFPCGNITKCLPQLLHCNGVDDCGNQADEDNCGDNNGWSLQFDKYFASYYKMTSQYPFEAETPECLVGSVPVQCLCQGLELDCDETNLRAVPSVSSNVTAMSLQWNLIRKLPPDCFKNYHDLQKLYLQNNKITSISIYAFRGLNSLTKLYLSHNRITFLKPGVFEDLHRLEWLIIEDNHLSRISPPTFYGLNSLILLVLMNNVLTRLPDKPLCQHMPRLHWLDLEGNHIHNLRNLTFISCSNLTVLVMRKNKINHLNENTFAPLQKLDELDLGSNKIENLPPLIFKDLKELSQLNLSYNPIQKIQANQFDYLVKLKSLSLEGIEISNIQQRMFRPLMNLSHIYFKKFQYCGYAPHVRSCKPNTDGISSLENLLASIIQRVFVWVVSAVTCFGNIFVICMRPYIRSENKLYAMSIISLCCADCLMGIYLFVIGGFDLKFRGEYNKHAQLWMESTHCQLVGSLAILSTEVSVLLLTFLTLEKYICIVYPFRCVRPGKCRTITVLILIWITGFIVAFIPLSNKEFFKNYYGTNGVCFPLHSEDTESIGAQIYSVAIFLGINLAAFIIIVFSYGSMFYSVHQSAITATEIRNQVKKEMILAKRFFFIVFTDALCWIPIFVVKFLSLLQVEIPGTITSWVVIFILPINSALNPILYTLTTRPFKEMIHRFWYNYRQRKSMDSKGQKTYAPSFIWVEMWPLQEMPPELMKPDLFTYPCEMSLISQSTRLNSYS
Test: RXFP1 Hu cAMP (Test A)
Assay type: cell-based
Parameters: expressed in transfected cells; host or cells: Jump-In T-REx CHO-K1 cells (ThermoFisher), induced with 10 ng/ml doxycycline for 24 h
Conditions: RXFP1 Hu cAMP; for EC50: read-out: Test A EC50
Outline: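 Cells: CHO-K1 stably carrying human RXFP1, expressed after 24 h 10 ng/ml doxycycline; 0.5 mM IBMX final, HTRF detection after 2 h at room temperature.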

Work on `COc1cc(F)c(O[C@H]2CC[C@@](C)(C(=O)O)CC2)cc1C(=O)N[C@@H]1COC[C@@H]1C(=O)NCC(C)(C)C` (racemic) [Example 345] yielded an EC50 greater than 40000 nM.

With `COc1ccc(Oc2ccc(C(=O)O)cc2)cc1C(=O)N[C@H]1[C@@H](C(=O)Nc2cccc(S(=O)(=O)C(F)(F)F)c2)[C@@H]2C=C[C@H]1C2` (racemic) [Example 427] the “Test A Sinf” value was 86% and the EC50 was 680 nM.

`COc1cc(F)c(O[C@H]2CC[C@@](C)(C(=O)O)CC2)cc1C(=O)N[C@@H]1[C@@H](OC)CC[C@@H]1C(=O)Nc1cccc(S(=O)(=O)C(F)(F)F)c1` (racemic) [Example 359] was tested, and the “Test A Sinf” value was 91% and the EC50 was 170 nM.

In the case of “(1R,4s)-4-(2-Fluoro-4-methoxy-5-(((1S*,2R*)-2-(neopentylcarbamoyl)cyclobutyl)carbamoyl)phenoxy)-1-methylcyclohexane-1-carboxylic acid [Example 569]”, the “Test A Sinf” value is reported as 97%.

In the case of `COc1cc(F)c(O[C@H]2CC[C@@](C)(C(=O)O)CC2)cc1C(=O)N[C@H]1[C@@H](C(=O)NCC2(C)CCC2)[C@H]2C=C[C@@H]1CC2` (racemic) [Example 471, (1R,4s)-4-(2-Fluoro-4-methoxy-5-(((1RS,2SR,3RS,4SR)-3-(((1-methylcyclobutyl)methyl)carbamoyl)bicyclo[2.2.2]oct-5-en-2-yl)carbamoyl)phenoxy)-1-methylcyclohexane-1-carboxylic acid], the “Test A Sinf” value is reported as 95% and the EC50 is reported as 91 nM.

With `COc1cc(F)c(O[C@H]2CC[C@@](C)(C(=O)O)CC2)cc1C(=O)N[C@@H]1[C@H]2CC[C@H](C2)[C@@H]1C(=O)NCC(C)(C)O` [Example 611] the EC50 was greater than 40000 nM.

`COc1cc(F)c(O[C@H]2CC[C@@](C)(C(=O)O)CC2)cc1C(=O)NC1CCC1C(=O)Nc1ccc(F)c(S(F)(F)(F)(F)F)c1` (single isomer, unassigned) [Example 570, (1R,4s)-4-(2-Fluoro-5-(((1S*,2R*)-2-((4-fluoro-3-(pentafluoro-λ6-sulfaneyl)phenyl)carbamoyl)cyclobutyl)carbamoyl)-4-methoxyphenoxy)-1-methylcyclohexane-1-carboxylic acid] was tested, and the “Test A Sinf” value was 128% and the EC50 was 9200 nM.

For `COc1c(F)cc(O[C@H]2CC[C@@](C)(C(=O)O)CC2)cc1C(=O)N[C@@H]1[C@H]2CC[C@H](C2)[C@@H]1C(=O)NC12CC(F)(C1)C2` [Example 390], the “Test A Sinf” value was 95% and the EC50 was 180 nM.

In the case of `COc1cc(F)c(O[C@H]2CC[C@@](C)(C(=O)O)CC2)cc1C(=O)N[C@@H]1[C@@H]2CC[C@@H](C2)[C@@H]1C(=O)Nc1cccc(S(=O)(=O)C(F)(F)F)c1` (racemic) [Example 367], the “Test A Sinf” value is reported as 110% and the EC50 is reported as 3.2 nM.

`COc1cc(F)c(C2CCC(C(=O)O)CC2)cc1C(=O)NC1C2CCC(C2)C1C(=O)Nc1cccc(S(=O)(=O)C(F)(F)F)c1` [Example 268, (1S,4s)-4-(2-Fluoro-4-methoxy-5-(((1S,2R,3S,4R)-3-((3-((trifluoromethyl)sulfonyl)phenyl)carbamoyl)bicyclo[2.2.1]heptan-2-yl)carbamoyl)phenyl)cyclohexane-1-carboxylic acid] was tested, and the “Test A Sinf” value was 84% and the EC50 was 860 nM.

`COc1cc(C#N)c(O[C@H]2CC[C@@](C)(C(=O)O)CC2)cc1C(=O)Nc1cc(Cl)ccc1C(=O)NC(C)(C)C1CC1` [Example 165] was tested, and the “Test A Sinf” value was 111% and the EC50 was 12 nM.

`COc1cc(F)c(-c2cnc(C(=O)O)nc2)cc1C(=O)N[C@H]1[C@@H](C(=O)Nc2cccc(S(=O)(=O)C(F)(F)F)c2)[C@@H]2C=C[C@H]1C2` (racemic) [Example 280] showed an EC50 greater than 40000 nM.

With `COc1cc(C#N)c(O[C@H]2CC[C@@](C)(C(=O)O)CC2)cc1C(=O)Nc1cc(C)ccc1C(=O)NCc1cccc(F)c1` [Example 166, (1s,4s)-4-(2-Cyano-5-((2-((3-fluorobenzyl)carbamoyl)-5-methylphenyl)carbamoyl)-4-methoxyphenoxy)-1-methylcyclohexane-1-carboxylic acid] the “Test A Sinf” value was 137% and the EC50 was 580 nM.

With `COc1cc(F)c(OC2CCC(CO)(C(=O)O)CC2)cc1C(=O)N[C@H]1C[C@H](OC)C[C@H]1C(=O)NCC(C)(C)C` (relative stereo) [Example 549, (1R,4s)-4-(2-Fluoro-4-methoxy-5-(((1S*,2R*,4R*)-4-methoxy-2-(neopentylcarbamoyl)cyclopentyl)carbamoyl)phenoxy)-1-(hydroxymethyl)cyclohexane-1-carboxylic acid] the “Test A Sinf” value was 94% and the EC50 was 1300 nM.

For `COc1cc(F)c(O[C@H]2CC[C@@](C)(C(=O)O)CC2)cc1C(=O)NC1COCCC1C(=O)Nc1cccc(S(=O)(=O)C(F)(F)F)c1` (single isomer, unassigned) [Example 558, (1R,4s)-4-(2-Fluoro-4-methoxy-5-(((3S*,4S*)-4-((3-((trifluoromethyl)sulfonyl)phenyl)carbamoyl)tetrahydro-2H-pyran-3-yl)carbamoyl)phenoxy)-1-methylcyclohexane-1-carboxylic acid], the EC50 was greater than 40000 nM.

“(1R,4s)-4-(2-Fluoro-4-methoxy-5-(((3S*,4R*)-4-(neopentylcarbamoyl)tetrahydrofuran-3-yl)carbamoyl)phenoxy)-1-methylcyclohexane-1-carboxylic acid [Example 567]” was tested, and the “Test A Sinf” value was 86%.

With `COc1cc(C#N)c(O[C@H]2CC[C@@](C)(C(=O)O)CC2)cc1C(=O)N[C@@H]1[C@H]2CC[C@H](C2)[C@@H]1C(=O)N[C@H]1CCCC[C@H]1CC(F)(F)F` [Example 134] the “Test A Sinf” value was 104% and the EC50 was 44 nM.

For `COc1cc(C#N)c(O[C@H]2CC[C@@](C)(C(=O)O)CC2)cc1C(=O)N[C@@H]1[C@H]2CC[C@H](C2)[C@@H]1C(=O)NCc1cc(C)ccc1C` [Example 136], the “Test A Sinf” value was 102% and the EC50 was 29 nM.

In the case of `COc1cc(F)c(OCc2cccc(C(=O)O)c2)cc1C(=O)N[C@H]1[C@@H](C(=O)Nc2cccc(S(=O)(=O)C(F)(F)F)c2)[C@@H]2C=C[C@H]1C2` (racemic) [Example 449], the “Test A Sinf” value is reported as 108% and the EC50 is reported as 1600 nM.

With `COc1cc(C#N)c(O[C@H]2CC[C@@](C)(C(=O)O)CC2)cc1C(=O)N[C@@H]1[C@H]2CC[C@H](C2)[C@@H]1C(=O)NC1CC(F)(F)C1` [Example 623] the “Test A Sinf” value was 104% and the EC50 was 180 nM.

Work on `COc1cc(F)c(O[C@H]2C[C@@H]3[C@H](C2)[C@H]3C(=O)O)cc1C(=O)N[C@@H]1[C@H]2CC[C@H](C2)[C@@H]1C(=O)NCC1(C)CCC1` (racemic) [Example 426, (1RS,3SR,5SR,6RS)-3-(2-Fluoro-4-methoxy-5-(((1S,2R,3S,4R)-3-(((1-methylcyclobutyl)methyl)carbamoyl)bicyclo[2.2.1]heptan-2-yl)carbamoyl)phenoxy)bicyclo[3.1.0]hexane-6-carboxylic acid] yielded an EC50 greater than 40000 nM.

In the case of `COc1cc(C#N)c(O[C@H]2CC[C@@](C)(C(=O)O)CC2)cc1C(=O)Nc1cc(Cl)ccc1C(=O)N[C@H](C)C(C)(C)F` [Example 162], the “Test A Sinf” value is reported as 107% and the EC50 is reported as 69 nM.

For `COc1cc(F)c(O[C@H]2CC[C@@](C)(C(=O)O)CC2)cc1C(=O)N[C@@H]1[C@H]2CC[C@H](C2)[C@@H]1C(=O)NCC1(C(F)(F)F)CCC1` [Example 613], the “Test A Sinf” value was 109% and the EC50 was 76 nM.

In the case of `CC1(CNC(=O)C2C3CCC(CC3)C2NC(=O)c2cc(O[C@H]3CC[C@@](C)(C(=O)O)CC3)c(C#N)cc2F)CCC1` (single isomer, unassigned) [Example 588, (1R,4s)-4-(2-Cyano-4-fluoro-5-(((2S*,3R*)-3-(((1-methylcyclobutyl)methyl)carbamoyl)bicyclo[2.2.2]octan-2-yl)carbamoyl)phenoxy)-1-methylcyclohexane-1-carboxylic acid], the “Test A Sinf” value is reported as 95% and the EC50 is reported as 7.6 nM.

`COc1cc(C#N)c(O[C@H]2CC[C@@](C)(C(=O)O)CC2)cc1C(=O)Nc1cc(C)ccc1C(=O)NCC1(F)CCC1` [Example 172] was tested, and the “Test A Sinf” value was 125% and the EC50 was 980 nM.

For `COc1cc(F)c(-c2ccc(C(=O)O)c(N(C)C)c2)cc1C(=O)N[C@@H]1[C@H]2CC[C@H](C2)[C@@H]1C(=O)Nc1cccc(S(=O)(=O)C(F)(F)F)c1` [Example 239], the “Test A Sinf” value was 100% and the EC50 was 130 nM.

For `COc1cc(F)c(-c2ccc(C(=O)O)cc2)cc1C(=O)N[C@@H]1[C@H]2CC[C@H](C2)[C@@H]1C(=O)NCC(C)(C)C` [Example 304], the “Test A Sinf” value was 95%.

`COc1cc(F)c(OCc2cccc(C(C)(C)C(=O)O)c2)cc1C(=O)N[C@H]1[C@@H](C(=O)Nc2cccc(S(=O)(=O)C(F)(F)F)c2)[C@@H]2C=C[C@H]1C2` (racemic) [Example 454] was tested, and the “Test A Sinf” value was 76%.

`COc1cc(C#N)c(O[C@H]2CC[C@@](C)(C(=O)O)CC2)cc1C(=O)N[C@H]1[C@@H](C(=O)NCC2(C)CCC2)[C@H]2CC[C@@H]1O2` (racemic) [Example 333] was tested, and the “Test A Sinf” value was 98%.

For `COc1cc(F)c(O[C@H]2CC[C@@](C)(C(=O)O)CC2)cc1C(=O)N[C@@H]1[C@H]2CC[C@H](C2)[C@@H]1C(=O)NC1CCCC1` [Example 599], the “Test A Sinf” value was 91% and the EC50 was 260 nM.
